# Test results: patent publication US7101902B2, “2-guanidinylimidazolidinedione compounds and methods of making and using thereof” (The United States of America as represented by the …, priority 2003, dated 2006)
# Values joined by “and” are separate entries in the source; they are usually repeats but may differ in a detail not shown here. Equal values may be shown once. “Also recorded” adds a separate entry of the source.
# Columns and labels:
# Plasmodium yoelii (17×) = assay: Sporozoite induced test in mouse (causal prophylactic activity); format: in vivo; conditions: sporozoite challenged CD-1 mice; single dose 4 hours before inoculation; oral administration
# Protocol: The causal prophylactic antimalarial activity of the new carbamate derivatives were assessed in a sporozoites challenged mouse model according to the following protocol and the results are shown in Table 4 and Table 5.
# Each compound was ground with a mortar and pestle and suspended in 0.5% hydroxyethylcellulose and 0.1% Tween 80 for compounds to be administered PO and those given SC were suspended in peanut oil. Each compound is prepared at 3 different dose levels.
# Compounds were administered either PO or SC to mice once 4 hours before inoculation of sporozoites.
# Four-week-old male CD-1 mice, purchased from Charles River and weighing about 16 to about 17 grams were placed 5 per cage and allowed to acclimate for 4 days before being treated and then inoculated with sporozoites. They were fed food and water ad-lib and maintained at 76° F. with 12 hour light and 12 hour darkness. The cages and water bottles were changed biweekly. The mice are weighed on Days 0, 3 and 6 then biweekly when blood films were taken.
# Plasmodium yoelii (17×) was used to infect mice that will be used to infect the mosquitoes.
# Mice were given a single dose of test compound 4 hours before being inoculated intraperitoneally with 2.5×10^5 sporozoites of Plasmodium yoelii on Day 0. Whole body weights were taken on Day 0 and Day 6 then twice a week for 31 days. A blood film was taken on Day 5 and then twice a week for 31 days. Mice loosing greater than about 20% of their body weight were sacrificed. All mice alive on Day 31 with no parasites in a blood film were considered cured. Donor mice used to infect the mosquitoes were infected with 2.5×10^4 parasitized erythrocytes. The mosquitoes were allowed to feed on these malaria-infected mice on Day 4 of their infection when the parasitemia was low.
# A compound was considered active against either the sporozoite or the EE stage if no parasites were found in the blood films taken on Day 5 or on subsequent blood films taken weekly for 31 days.
# Mice alive on Day 31 with no parasites found in any blood films were considered cured.
# P. cynomolgi sporozoites [1] = assay: Oral causal prophylactic assay in Rhesus monkey (compound 3 IM; 4b and 3c PO); format: in vivo, Plasmodium cynomolgi; conditions: per monkey
# Protocol: To test the causal prophylactic intramuscular potency of the purified isomer of compound 3 and oral potency of two carbamate derivatives of 2-guanidinylimidazolidinedione (4b and 3c) the following assay was conducted.
# Fourteen rhesus monkeys were issued.
# A donor monkey was inoculated intravenously with 1.3 ml, freshly-thawed frozen infected red blood cell (DA310). When the monkey developed gametocytemia, mosquito feedings were conducted on days 15 and 16 after inoculation. The donor monkey was treated with intramuscular chloroquine hydrochloride (CQ) 10 mg/kg, once a day after the second mosquito feeding and continued for 6 days.
# On day 0 of the beginning of the assay, each of the 14 monkeys was inoculated intravenously with 1-ml inoculum of suspension containing about 1.0×10^6 P. cynomolgi sporozoites harvested from Anopheles dirus mosquitoes' salivary glands previously fed on the donor monkey.
# All monkeys received treatment on days −1, 0 and 1. The control monkeys (Group 1) received HECT orally and the experimental animals received testing compound intramuscularly (Groups 2 and 3) or orally (Groups 4 to 7).
# P. cynomolgi sporozoites [2] = assay: Causal prophylactic assay for intramuscular administration in Rhesus monkey; format: in vivo, Plasmodium cynomolgi
# Protocol: The causal prophylactic antimalarial activity of the two 2-guanidinylimidazolidinedione carbamates 3c and 4b were assessed against Plasmodium cynomolgi in Rhesus monkey. Two monkeys were used in each test group. The average control animal developed parasitemia is about 10 days after inoculation of about 1×10^6 P. cynomolgi sporozoites harvested from Anopheles dirus.
# In order to study the causal prophylactic activity of the 2-guanidinylimidazolidinedione compounds of the present invention, the following assay was conducted. Twelve rhesus monkeys were issued. The monkeys were randomized to 2 control animals and 5 groups of 2 experimental animals each.
# A donor monkey was inoculated intravenously with 1.3 ml, freshly-thawed frozen infected red blood cells (DA310). The experiments were conducted in US Army oversea laboratory, AFRIMS, Bankoku, Thailand. When the donor monkey developed gametocytemia, mosquito feedings were conducted on days 13 and 14 after inoculation. The donor monkey was treated with intramuscular chloroquine hydrochloride (CQ) 10 mg/kg, once a day after the second mosquito feeding and continued for 7 days.
# On day 0 (beginning of assay), each of the 12 monkeys was inoculated intravenously with 1-ml inoculum of suspension containing about 1.0×10^6 P. cynomolgi sporozoites harvested from Anopheles dirus mosquitoes' salivary glands previously fed on the donor monkey. See Corcoran, K D, et al. (1993) Am. J. Trop. Med. Hyg. 49:473–477, and Shanks, G D, et al. (2001) Clinical Infectious Diseases 33:1968–1974, which are herein incorporated by reference.
# All monkeys received treatment on days −1, 0 and 1. The control monkeys received dimethylsulfoxide (DMSO) and the experimental animals received testing compound intramusculary.
# [3] = Solubility and characteristics of the compounds in the dosing vehicle; format: physicochemical
compound,measurement,setting,value
"N-(3,4-dichloro-phenyl)-N′-(5-methyl-2-oxo-1,3-dioxol-4-yl)methyl-N″-(1-isopropyl-4,5-dioxo-imidazolidin-2-ylidene)guanidine [Compound 3f]",Minimum Protective Dose Against P. yoelii,Plasmodium yoelii (17×),>40 mg/kg
"CC(C)COC(=O)N=C(N=C1NC(=O)C(=O)N1C(C)C)Nc1ccc(Cl)c(Cl)c1 [Compound 3b, N-(3,4-dichlorophenyl)-N′-(isobutoxycarbonyl)-N″-(1-isopropyl-4,5-dioxo-imidazolidin-2-ylidene)-guanidine]",Minimum Protective Dose Against P. yoelii,Plasmodium yoelii (17×),>40 mg/kg
"CCOC(=O)N=C(N=C1NC(=O)C(=O)N1C(C)C)Nc1ccc(Cl)c(Cl)c1 [Compound 3a, N-(3,4-dichlorophenyl)-N′-ethoxycarbonyl-N″-(1-isopropyl-4,5-dioxo-imidazolidin-2-ylidene)-guanidine]",melting point,,257 °C
same,Minimum Protective Dose Against P. yoelii,Plasmodium yoelii (17×),2.5 mg/kg
"CC(C)NC(=NC(=O)OC(C)(C)C)N=C1NC(=O)C(=O)N1c1ccc(Cl)c(Cl)c1 [Compound 4c, N-[1-(3,4-dichlorophenyl)-4,5-dioxo-imidazolidin-2-ylidene]-N′-isopropyl-N″-(tert-butoxycarbonyl)guanidine]",Minimum Protective Dose Against P. yoelii,Plasmodium yoelii (17×),1.25 mg/kg
"CC(C)N1C(=O)C(=O)NC1=NC(=NC(=O)OCCOCc1ccccc1)Nc1ccc(Cl)c(Cl)c1 [Compound 3h, N-(3,4-dichloro-phenyl)-N′-(2-benzyloxyethoxycarbonyl)-N″-(1-isopropyl-4,5-dioxo-imidazolidin-2-ylidene)-guanidine]",Minimum Protective Dose Against P. yoelii,Plasmodium yoelii (17×),160 mg/kg
"COc1cc(C)c2c(Oc3cccc(C(F)(F)F)c3)c(OC)cc(NC(C)CCCN)c2n1 (centres unmarked) [Tafenoguine, reference compound]",Minimum Protective Dose Against P. yoelii,Plasmodium yoelii (17×),2.5 mg/kg
"C=CCCOC(=O)N=C(N=C1NC(=O)C(=O)N1C(C)C)Nc1ccc(Cl)c(Cl)c1 [Compound 3g, N-(3,4-dichlorophenyl)-N′-(3-butenyloxycarbonyl)-N″-(1-isopropyl-4,5-dioxoimidazolidin-2-ylidene)-guanidine]",Minimum Protective Dose Against P. yoelii,Plasmodium yoelii (17×),160 mg/kg
"CC(C)NC(=N)NC1=NC(=O)C(=O)N1c1ccc(Cl)c(Cl)c1 [Compound 4, N-[1-(3,4-dichlorophenyl)-4,5-dioxo-4,5-dihydro-1H-imidazol-2-yl]-N′-isopropylguanidine]",melting point,,244 °C and 245 °C
same,Minimum Protective Dose Against P. yoelii,Plasmodium yoelii (17×),5 mg/kg
"CCCCCCOC(=O)N=C(N=C1NC(=O)C(=O)N1C(C)C)Nc1ccc(Cl)c(Cl)c1 [Compound 3e, N-(3,4-dichlorophenyl)-N′-(1-hexyloxycarbonyl)-N″-(1-isopropyl-4,5-dioxo-imidazolidin-2-ylidene)-guanidine]",Minimum Protective Dose Against P. yoelii,Plasmodium yoelii (17×),40 mg/kg
"COc1cc(NC(C)CCCN)c2ncccc2c1 (centres unmarked) [Primaquine, reference compound]",Minimum Protective Dose Against P. yoelii,Plasmodium yoelii (17×),40 mg/kg
"C[C@H]1[C@@H](O)O[C@@H]2O[C@@]3(C)CC[C@H]4[C@H](C)CC[C@@H]1[C@@]24OO3 [Dihyroartemisinin, reference compound]",Minimum Protective Dose Against P. yoelii,Plasmodium yoelii (17×),160 mg/kg
"CC(C)COC(=O)N=C(N=C1NC(=O)C(=O)N1c1ccc(Cl)c(Cl)c1)NC(C)C [Compound 4b, N-[1-(3,4-dichlorophenyl)-4,5-dioxo-imidazolidin-2-ylidene]-N′-isopropyl-N″-(isobutyloxycarbonyl)guanidine]",Day of Parasitemia,P. cynomolgi sporozoites [1]; 10 mg/kg PO,8 days
same,Result (delay the parasitemia),"P. cynomolgi sporozoites [1]; 10 mg/kg PO, 10 mg/kg",not protected; also recorded: No activity
same,Day of Parasitemia,P. cynomolgi sporozoites [1]; 30 mg/kg PO,8 days
same,Result (delay the parasitemia),"P. cynomolgi sporozoites [1]; 30 mg/kg PO, 30 mg/kg",not protected; also recorded: No activity
same,Day of Parasitemia,"P. cynomolgi sporozoites [2]; 10 mg/kg IM on days -1, 0 and 1, per monkey, 10 mg/kg",Parasitemia on day 47 and Parasite free on day 100 and 47 day and Remain parasite free
same,Result (causal prophylaxis = parasite free for 100 days after treatment),"P. cynomolgi sporozoites [2]; 10 mg/kg IM, 10 mg/kg",protected one monkey; also recorded: Causal prophylaxis; also recorded: Delay the parasitemia
same,Delay of parasitemia,"P. cynomolgi sporozoites [2]; 10 mg/kg IM, the monkey not protected",34 days
same,Day of Parasitemia,"P. cynomolgi sporozoites [2]; 30 mg/kg IM on days -1, 0 and 1, per monkey, 30 mg/kg",stayed parasite free 100 days after treatment; also recorded: Parasite free on day 100; also recorded: Remain parasite free
same,Result (causal prophylaxis = parasite free for 100 days after treatment),"P. cynomolgi sporozoites [2]; 30 mg/kg IM, 30 mg/kg",protected; also recorded: Causal prophylaxis
same,Protective / prophylactic activity (in words),"P. cynomolgi sporozoites [2]; 10 and 30 mg/kg, intramuscular",partial to complete prophylactic activity; also recorded: protective activity
same,Sediment,"[3]; vehicle DMSO, dosage 10 mg/kg",None
same,Solubility,"[3]; vehicle DMSO, dosage 10 mg/kg",Good
same,Supernatant,"[3]; vehicle DMSO, dosage 10 mg/kg",Clear
same,Supernatant,"[3]; vehicle DMSO, dosage 30 mg/kg",Clear
same,Solubility,"[3]; vehicle HECT, dosage 10 mg/kg",Moderate
same,Supernatant,"[3]; vehicle HECT, dosage 10 mg/kg",Turbid
same,Solubility,"[3]; vehicle HECT, dosage 30 mg/kg",Moderate
same,Supernatant,"[3]; vehicle HECT, dosage 30 mg/kg",Turbid
same,Minimum Protective Dose Against P. yoelii,Plasmodium yoelii (17×),2.5 mg/kg
"N=C(N=C1NC(=O)C(=O)N1c1ccc(Cl)c(Cl)c1)Nc1ccc(Cl)c(Cl)c1 [Compound 19, N-(3,4-dichlorophenyl)-N′-[1-(3,4-dichlorophenyl)-4,5-dioxo-imidazolidin-2-ylidene]-guanidine]",melting point,,220 °C
"N-(3,4-dichlorophenyl)-N′-(benzyloxycarbonyl)-N″-(1-isopropyl-4,5-dioxo-imidazolidin-2-ylidene)-guanidine [Compound 3d]",Minimum Protective Dose Against P. yoelii,Plasmodium yoelii (17×),>160 mg/kg
"CC(C)NC(=NC(=O)OCc1ccccc1)N=C1NC(=O)C(=O)N1c1ccc(Cl)c(Cl)c1 [Compound 4d, N-[1-(3,4-dichlorophenyl)-4,5-dioxo-imidazolidin-2-ylidene]-N′-isopropyl-N″-(benzyloxycarbonyl)guanidine]",melting point,,211 °C
same,Minimum Protective Dose Against P. yoelii,Plasmodium yoelii (17×),10 mg/kg
"CC(C)N1C(=O)C(=O)NC1=NC(=NC(=O)OC(C)(C)C)Nc1ccc(Cl)c(Cl)c1 [Compound 3c, N-(3,4-dichlorophenyl)-N′-(1-isopropyl-4,5-dioxoimidazolidin-2-ylidene)-N″-(tert-butoxycarbonyl)-guanidine]",Day of Parasitemia,"P. cynomolgi sporozoites [1]; 10 mg/kg PO, 10 mg/kg",9 days and 10 days
same,Result (delay the parasitemia),"P. cynomolgi sporozoites [1]; 10 mg/kg PO, 10 mg/kg",2 days and 1 days
same,Day of Parasitemia,"P. cynomolgi sporozoites [1]; 30 mg/kg PO, 30 mg/kg",10 days and 11 days
same,Result (delay the parasitemia),"P. cynomolgi sporozoites [1]; 30 mg/kg PO, 30 mg/kg",3 days and 2 days
same,Sediment,"[3]; vehicle DMSO, dosage 10 mg/kg",None
same,Solubility,"[3]; vehicle DMSO, dosage 10 mg/kg",Good
same,Sediment,"[3]; vehicle DMSO, dosage 30 mg/kg",None
same,Solubility,"[3]; vehicle DMSO, dosage 30 mg/kg",Good
same,Solubility,"[3]; vehicle HECT, dosage 10 mg/kg",Moderate
same,Supernatant,"[3]; vehicle HECT, dosage 10 mg/kg",Turbid
same,Solubility,"[3]; vehicle HECT, dosage 30 mg/kg",Moderate
same,Supernatant,"[3]; vehicle HECT, dosage 30 mg/kg",Turbid
same,Minimum Protective Dose Against P. yoelii,Plasmodium yoelii (17×),40 mg/kg
"CCCCCCOC(=O)N=C(N=C1NC(=O)C(=O)N1c1ccc(Cl)c(Cl)c1)NC(C)C [Compound 4e, N-[1-(3,4-dichlorophenyl)-4,5-dioxo-imidazolidin-2-ylidene]-N′-isopropyl-N″-(1-hexyloxycarbonyl)guanidine]",Minimum Protective Dose Against P. yoelii,Plasmodium yoelii (17×),5 mg/kg
